Values quoted from earlier work in patent publication US20140010903A1, “Curcuminoid composition with enhanced bioavailability and a process for its preparation” (Akay Flavours & Aromatics Pvt Ltd., priority 2012, published 2014).

O=C(/C=C/C=C/c1ccc2c(c1)OCO2)N1CCCCC1 [piperine]
Toxicity in animal studies: toxic
